≈ marks a conversion by molar mass, not a printed value. Like-named read-outs stand apart in the source and are kept apart here.
Experiments:
Assay type in all cases: cell-based
[1] = test system: M. tuberculosis H37Rv (ATCC 27294); test: MIC by broth dilution against M. tuberculosis H37Rv (replicating); details: Mycobacterium tuberculosis
[2] = test system: macrophage J774 cells line; test: Cytotoxicity assay (MTT) in macrophage J774 cells; details: macrophage J774, 24 hrs incubation, tested at 40 μg/ml
Protocol: The study was carried out using macrophage J774 cells line (ATCC-USA). Cells were grown in Rosewell Park Memorial Institute Medium (RPMI) containing 10% fetal calf serum (FCS) and supplemented with 75 mg/liter penicillin, 100 mg/liter streptomycin, 110 mg/liter Sodium pyruvate, 2.38 gm/liter HEPES, 0.05 mM 2 β-mercaptoethanol, and 2 gm/liter NaHCO3, in a humidified atmosphere in 5% CO2 at 37° C., and were sub-cultured at 1:4 ratio once a week.
Cells were plated at a density of 3×10^4 cells/cm^2 and maintained in culture medium for 12 hours. Cells were seeded onto 96-well flat bottom plates and FCS was reduced to 5% for the experiment. Stock solutions of compounds 9 to 37 were prepared fresh to avoid oxidation. Cells were incubated with the compounds (40 μg/ml) for 24 hrs.
After the completion of incubation, the medium was removed and cell viability was evaluated by assaying for the ability of functional mitochondria to catalyze the reduction of 3-(4,5-dimethylthiazol-2-yl)-2,5-diphenyltetrazolium bromide (MTT) to form formazan salt by mitochondrial dehydrogenases, and determined by Elisa reader at 450 nm (Multiskan Spectrum; Thermo Electron Corporation, USA). Percentage cytotoxicity was calculated with respect to the untreated cells.

[3] = test system: non-replicating stages of M. tuberculosis; test: MIC against non-replicating M. tuberculosis; details: Mycobacterium tuberculosis, read-out: MIC Non-replicating strain
[4] = 504 h, broth dilution, 37° C. for 3-weeks, read visually, replicating stage, read-out: MIC M. tb H37Rv

Compound | MIC [1, 4] [µg/mL] | Cytotoxicity [2] [µg/mL] | MIC [3] [µg/mL] | MIC ([1]; read-out: MIC value) [µg/mL]
C[C@]1(Cn2cc(-c3ccc(OC(F)(F)F)cc3)nn2)Cn2cc([N+](=O)[O-])nc2O1 [I1, (R)-2-Methyl-6-nitro-2-((4-(4-(trifluoromethoxy)phenyl)-1H-1,2,3-triazol-1-yl)methyl)-2,3-dihydroimidazo[2,1-b]oxazole] | 2 (≈ 4.87 µM) | >40 | 4 (≈ 9.75 µM) | 
C[C@]1(Cn2cc(-c3ccc(C(F)(F)F)cc3)nn2)Cn2cc([N+](=O)[O-])nc2O1 [I2, (R)-2-Methyl-6-nitro-2-((4-(4-(trifluoromethyl)phenyl)-1H-1,2,3-triazol-1-yl)methyl)-2,3-dihydroimidazo[2,1-b]oxazole] | 2 (≈ 5.07 µM) | >40 | 8 (≈ 20.3 µM) | 
C[C@]1(Cn2cc(-c3ccc(F)cc3)nn2)Cn2cc([N+](=O)[O-])nc2O1 [I3, (R)-2-((4-(4-Fluorophenyl)-1H-1,2,3-triazol-1-yl)methyl)-2-methyl-6nitro-2,3-dihydro imidazo[2,1-b]oxazole] | 1 (≈ 2.9 µM) | >40 | 2 (≈ 5.81 µM) | 
Cc1cc(-c2cn(C[C@@]3(C)Cn4cc([N+](=O)[O-])nc4O3)nn2)ccc1F [I4, (R)-2-((4-(4-Fluoro-3-methylphenyl)-1H-1,2,3-triazol-1-yl)methyl)-2-methyl-6-nitro-2,3-dihydroimidazo[2,1-b]oxazole] | 2 (≈ 5.58 µM) | >40 | 4 (≈ 11.2 µM) | 
C[C@]1(Cn2cc(-c3ccc(F)cc3F)nn2)Cn2cc([N+](=O)[O-])nc2O1 [I5, (R)-2-((4-(2,4-Difluorophenyl)-1H-1,2,3-triazol-1-yl)methyl)-2-methyl-6-nitro-2,3-dihydroimidazo[2,1-b]oxazole] | 1 (≈ 2.76 µM) | >40 | 8 (≈ 22.1 µM) | 
C[C@]1(Cn2cc(-c3ccc(Oc4ccccc4)cc3)nn2)Cn2cc([N+](=O)[O-])nc2O1 [I6, (R)-2-Methyl-6-nitro-2-((4-(4-phenoxyphenyl)-1H-1,2,3-triazol-1-yl)methyl)-2,3-dihydroimidazo[2,1-b]oxazole] | 2 (≈ 4.78 µM) | >40 | 2 (≈ 4.78 µM) | 
CCCCCc1cn(C[C@@]2(C)Cn3cc([N+](=O)[O-])nc3O2)nn1 [I7, (R)-2-[(4-Pentyl-1H-1,2,3-triazol-1-yl)methyl]-2,3-dihydro-2-methyl-6-nitroimidazo[2,1-b]oxazole] | 2 (≈ 6.24 µM) | >40 | 4 (≈ 12.5 µM) | 
C[C@]1(Cn2cc(COc3ccc(OC(F)(F)F)cc3)nn2)Cn2cc([N+](=O)[O-])nc2O1 [I8, (R)-2-Methyl-6-nitro-2-((4-((4-(trifluoromethoxy)phenoxy)methyl)-1H-1,2,3-triazol-1-yl)methyl)-2,3-dihydroimidazo[2,1-b]oxazole] | 2 (≈ 4.54 µM) | >40 | 4 (≈ 9.08 µM) | 
C[C@]1(Cn2cc(COc3ccc(C(F)(F)F)cc3)nn2)Cn2cc([N+](=O)[O-])nc2O1 [I9, (R)-2-Methyl-6-nitro-2-((4-((4-(trifluoromethyl)phenoxy)methyl)-1H-1,2,3-triazol-1-yl)methyl)-2,3-dihydroimidazo[2,1-b]oxazole] | 1 (≈ 2.36 µM) | >40 | 2 (≈ 4.71 µM) | 
C[C@]1(Cn2cc(COc3cccc(Cl)c3)nn2)Cn2cc([N+](=O)[O-])nc2O1 [I10, (R)-2-((4-((3-Chlorophenoxy)methyl)-1H-1,2,3-triazol-1-yl)methyl)-2-methyl-6-nitro-2,3-dihydroimidazo[2,1-b]oxazole] | 0.5 (≈ 1.28 µM) | >40 | 1 (≈ 2.56 µM) | < 1
C[C@]1(Cn2cc(COc3ccc(Br)cc3)nn2)Cn2cc([N+](=O)[O-])nc2O1 [I11, (R)-2-((4-((4-Bromophenoxy)methyl)-1H-1,2,3-triazol-1-yl)methyl)-2-methyl-6-nitro-2,3-dihydroimidazo[2,1-b]oxazole] | 0.12 (≈ 0.276 µM) | >40 | 0.25 (≈ 0.574 µM) | < 1
Cc1ccc(OCc2cn(C[C@@]3(C)Cn4cc([N+](=O)[O-])nc4O3)nn2)cc1 [I12, (R)-2-Methyl-6-nitro-2-((4-((p-tolyloxy)methyl)-1H-1,2,3-triazol-1-yl)methyl)-2,3-dihydroimidazo[2,1-b]oxazole] | 1 (≈ 2.7 µM) | >40 | 2 (≈ 5.4 µM) | 
Cc1cccc(OCc2cn(C[C@@]3(C)Cn4cc([N+](=O)[O-])nc4O3)nn2)c1 [I13, (R)-2-Methyl-6-nitro-2-((4-((m-tolyloxy)methyl)-1H-1,2,3-triazol-1-yl)methyl)-2,3-dihydroimidazo[2,1-b]oxazole] | 0.5 (≈ 1.35 µM) | >40 | 0.5 (≈ 1.35 µM) | < 1
Cc1ccccc1OCc1cn(C[C@@]2(C)Cn3cc([N+](=O)[O-])nc3O2)nn1 [I14, (R)-2-Methyl-6-nitro-2-((4-((o-tolyloxy)methyl)-1H-1,2,3-triazol-1-yl)methyl)-2,3-dihydroimidazo[2,1-b]oxazole] | 0.5 (≈ 1.35 µM) | >40 | 2 (≈ 5.4 µM) | < 1
CCc1ccc(OCc2cn(C[C@@]3(C)Cn4cc([N+](=O)[O-])nc4O3)nn2)cc1 [I15, (R)-2-((4-((4-Ethylphenoxy)methyl)-1H-1,2,3-triazol-1-yl)methyl)-2-methyl-6-nitro-2,3-dihydroimidazo[2,1-b]oxazole] | 2 (≈ 5.2 µM) | >40 | 2 (≈ 5.2 µM) | 
C[C@]1(Cn2cc(COc3cccc(F)c3)nn2)Cn2cc([N+](=O)[O-])nc2O1 [I16, (R)-2-((4-((3-Fluorophenoxy)methyl)-1H-1,2,3-triazol-1-yl)methyl)-2-methyl-6-nitro-2,3-dihydroimidazo[2,1-b]oxazole] | 1 (≈ 2.67 µM) | >40 | 2 (≈ 5.34 µM) | 
C[C@]1(Cn2cc(COc3ccccc3F)nn2)Cn2cc([N+](=O)[O-])nc2O1 [I17, (R)-2-((4-((2-Fluorophenoxy)methyl)-1H-1,2,3-triazol-1-yl)methyl)-2-methyl-6-nitro-2,3-dihydroimidazo[2,1-b]oxazole] | 0.25 (≈ 0.668 µM) | >40 | 0.5 (≈ 1.34 µM) | < 1
CC(C)c1ccc(OCc2cn(C[C@@]3(C)Cn4cc([N+](=O)[O-])nc4O3)nn2)cc1 [I18, (R)-2-((4-((4-Isopropylphenoxy)methyl)-1H-1,2,3-triazol-1-yl)methyl)-2-methyl-6-nitro-2,3-dihydroimidazo[2,1-b]oxazole] | 0.5 (≈ 1.25 µM) | >40 | 1 (≈ 2.51 µM) | < 1
C[C@]1(Cn2cc(COc3ccccn3)nn2)Cn2cc([N+](=O)[O-])nc2O1 [I19, (R)-2-Methyl-6-nitro-2-((4-((pyridin-2-yloxy)methyl)-1H-1,2,3-triazol-1-yl)methyl)-2,3-dihydroimidazo[2,1-b]oxazole] | 1 (≈ 2.8 µM) | >40 | 2 (≈ 5.6 µM) | 
Cc1ccc(SCc2cn(C[C@@]3(C)Cn4cc([N+](=O)[O-])nc4O3)nn2)cc1 [I20, (R)-2-Methyl-6-nitro-2-((4-((p-tolylthio)methyl)-1H-1,2,3-triazol-1-yl)methyl)-2,3-dihydroimidazo[2,1-b]oxazole] | 2 (≈ 5.18 µM) | >40 | 1 (≈ 2.59 µM) | 
Cc1ccc(OCCc2cn(C[C@@]3(C)Cn4cc([N+](=O)[O-])nc4O3)nn2)cc1 [I21, (R)-2-Methyl-6-nitro-2-((4-(2-(p-tolyloxy)ethyl)-1H-1,2,3-triazol-1-yl)methyl)-2,3-dihydroimidazo[2,1-b]oxazole] | 0.25 (≈ 0.65 µM) | >40 | 0.25 (≈ 0.65 µM) | < 1
C[C@]1(Cn2cc(CN3CCOCC3)nn2)Cn2cc([N+](=O)[O-])nc2O1 [I22, (R)-2-Methyl-2-((4-(morpholinomethyl)-1H-1,2,3-triazol-1-yl)methyl)-6-nitro-2,3-dihydroimidazo[2,1-b]oxazole] | 2 (≈ 5.72 µM) | >40 | 1 (≈ 2.86 µM) | 

Source: US9822126B1, “Substituted 1,2,3-triazol-1-yl-methyl-2,3-dihydro-2-methyl-6-nitroimidazo[2,1-b]oxazoles as anti-mycobacterial agents and a process for the preparation thereof” (priority 2014, dated 2017)
